# Literature values as cited in patent US9756853B2, “Solid pesticidal formulation” (priority 2013, dated 2017).
# Conditions: 20° C.
structure (smiles),measurement,value
CN/C(=N/CC1CCOC1)N[N+](=O)[O-] (stereo not shown) [dinotefuran],solubility in water,40 mg/mL
